Consider ten compounds from patent US20240300945A1, “CLY SERIES COMPOUND, PREPARATION METHOD THEREFOR AND USE THEREOF IN PREPARATION OF DRUGS” (NANJING WELLBEST PHARMACEUTICAL CO., LTD, priority 2021, published 2024).

Structures are written as SMILES. Marks after values point to notes of the source that are not given here.

The test system of assay [1] is skin hair follicles and sebaceous glands of mice. The assay is described as follows: Mouse hair loss model: histopathological grading of skin hair follicles and sebaceous glands. The format is in vivo, C57BL/6 mice. As to conditions: external 2% tincture, 60 days, 6 mice per group; for number of mice with hair follicle and sebaceous gland grade +++: grade +++ (most severe); for number of mice with hair follicle and sebaceous gland grade ±: grade ± (lesions limited); for number of mice with hair follicle and sebaceous gland grade −: grade − (normal structure). From the text:
(§1) The experimental mice were divided into the negative control group (external use of 60% ethanol), model group (external use of 60% ethanol), positive control group (external use of 2% minoxidil tincture), CLY-1 external treatment group (external use of 2% CLY-1 tincture), CLY-2 external treatment group (external use of 2% CLY-2 tincture), CLY-3 external treatment group (external use of 2% CLY-3 tincture), CLY-4 external treatment group (external use of 2% CLY-4 tincture), CLY-8 external treatment group (external use of 2% CLY-8 tincture) CLY-11 external treatment group (2% CLY-11 tincture), CLY-19 external treatment group (2% CLY-19 tincture), CLY-36 external treatment group (2% CLY-36 tincture), and CLY-39 external treatment group (2% CLY-39 tincture). There were 6 animals in each group, half male and half female. An area of 4 cm×5 cm from the back of experimental mice with hair removed was selected, and the hair removal area was painted yellow with 3% picric acid solution to determine the observation area of the hair removal experiment. In addition to the negative control group, mice in other groups were injected subcutaneously with testosterone propionate injection [8 ml/(kg·d)] at the back of the neck, once a day, for 60 consecutive days, to establish the model of androgenic alopecia (AGA). At the same time of modeling, the rats in the corresponding drug group were smeared with drugs on the observation area of the back at the rate of 1 ml/(piece·time), twice a day, with an interval of 2 hours. The normal control group and the model control group were smeared with the excipient (60% ethanol solution), 1 ml/(one time), twice a day, for 60 consecutive days.
(§2) 10 hairs were extracted from the observation area on the back of each mouse every 15 days after administration, and the hair length was measured with a vernier caliper. After 60 days of administration, the skin of the experimental observation area was taken for routine tissue dehydration, paraffin embedding, HE staining, and light microscopy to observe the histopathological changes of mouse skin hair follicles and sebaceous glands. Semi-quantitative analysis was performed for each group. The grading criteria are as follows: the normal structure of dermal tissue cells, subcutaneous hair follicles, and sebaceous glands is marked as […]: no hyperplasia of dermal tissue is found, the lesions of hair follicles and sebaceous glands are limited, and no inflammation is found under the skin is marked as “+”: no obvious hyperplasia of dermal tissue is found, and the follicles are obviously cystic. No obvious hyperplasia of sebaceous glands is found, and no inflammation is found under the skin is marked as “+”: the dermal tissue has segmental hyperplasia, which is not obvious, A small number of hair follicles have cystic changes, and the sebaceous glands have mild hyperplasia and hypertrophy. There is no obvious inflammation under the skin, which is marked as “++”: the dermal tissue cells of the skin have different degrees of segmental hyperplasia, and some hair follicles have cystic changes, showing uneven size of hair follicles, and no cells around. The sebaceous glands have hyperplasia, and the nuclei in the proliferative glands are few. A few subcutaneous mild inflammatory hyperplasia is marked as “+++”.

Another assay relates to mouse hair loss model. In words: Mouse hair loss (androgenic alopecia) model: hair length. Type of assay: in vivo, C57BL/6 mice. As to conditions: mouse AGA model; external 2% tincture twice a day.
Text: (1) Preparation method of tincture of compounds CLY-1, CLY-2, CLY-3, CLY-4, CLY-8, CLY-11, CLY-19, CLY-36, and CLY-39: 60% ethanol was mixed with the above compounds to prepare a tincture of 2% concentration.
(2) Positive treatment drug: 2% minoxidil tincture (produced by the Institute of Dermatology, Chinese Academy of Medical Sciences)
as §1, §2

For `CN1CCC[C@@H](N(C(=O)c2ccc(-n3nnc4cccnc43)cc2)c2ncccc2Cl)C1` [CLY-1, (R)-4-(3H-[1,2,3]triazolo[4,5-b]pyridin-3-yl)-N-(3-chloropyridin-2-yl)-N-(1-methylpiperidin-3-yl)benzamide], in assay [1], the “number of mice with hair follicle and sebaceous gland grade +++” value amounted to 0; the “number of mice with hair follicle and sebaceous gland grade ++” value was determined as 1; the “number of mice with hair follicle and sebaceous gland grade +” value came to 2; the “number of mice with hair follicle and sebaceous gland grade ±” value is 3. Moreover, the “number of mice with hair follicle and sebaceous gland grade −” value in assay [1] was 0. In addition, in the assay with mouse hair loss model, the 15-day hair length was 0.653* cm, the 30-day hair length is given as 0.851* cm, the 45-day hair length is recorded as 0.858* cm and the 60-day hair length is 0.951* cm.

As to `CCN1CCC[C@@H](N(C(=O)c2ccc(-n3nnc4cccnc43)cc2)c2ncccc2Cl)C1` [CLY-2, (R)-4-(3H-[1,2,3]triazolo[4,5-b]pyridin-3-yl)-N-(3-chloropyridin-2-yl)-N-(1-ethylpiperidin-3-yl)benzamide], in assay [1], the “number of mice with hair follicle and sebaceous gland grade +++” value is 0; the “number of mice with hair follicle and sebaceous gland grade ++” value is recorded as 0; the “number of mice with hair follicle and sebaceous gland grade +” value is 2; the “number of mice with hair follicle and sebaceous gland grade ±” value came out at 4. Besides, the “number of mice with hair follicle and sebaceous gland grade −” value in assay [1] was 0. In the assay on mouse hair loss model, the 15-day hair length was 0.676* cm, the 30-day hair length is given as 0.865* cm, the 45-day hair length is 0.869* cm and the 60-day hair length is 0.962* cm.

In the case of `CNC1CCCC(N(C(=O)c2ccc(-n3nnc4cccnc43)cc2)c2ncccc2Cl)C1` (stereo not drawn) [CLY-3], in assay [1], the “number of mice with hair follicle and sebaceous gland grade +++” value is reported as 0; the “number of mice with hair follicle and sebaceous gland grade ++” value was 2; the “number of mice with hair follicle and sebaceous gland grade +” value was determined as 1; the “number of mice with hair follicle and sebaceous gland grade ±” value stood at 3. In assay [1], the “number of mice with hair follicle and sebaceous gland grade −” value was 0. Further, in the assay with mouse hair loss model, the 15-day hair length is 0.646* cm, the 30-day hair length is recorded as 0.843* cm, the 45-day hair length is 0.847* cm and the 60-day hair length is listed as 0.946* cm.

Consider `O=C(c1ccc(-n2nnc3cccnc32)cc1)N(c1ncccc1Cl)C1CCCC(O)C1` (stereo not drawn) [CLY-4], for which, in assay [1], the “number of mice with hair follicle and sebaceous gland grade +++” value turned out to be 0; the “number of mice with hair follicle and sebaceous gland grade ++” value came out at 2; the “number of mice with hair follicle and sebaceous gland grade +” value stood at 2; the “number of mice with hair follicle and sebaceous gland grade ±” value is 2. Besides, the “number of mice with hair follicle and sebaceous gland grade −” value in assay [1] turned out to be 0. Further, in the assay on mouse hair loss model, the 15-day hair length is 0.641* cm, the 30-day hair length is given as 0.837* cm, the 45-day hair length is 0.841* cm and the 60-day hair length is recorded as 0.939* cm.

For the compound `O=C(c1ccc(-n2nnc3cccnc32)cc1)N(c1ncccc1Cl)[C@@H]1CCNC1` [CLY-8, (R)-4-(3H-[1,2,3]triazolo[4,5-b]pyridin-3-yl)-N-(3-chloropyridin-2-yl)-N-(pyrrolidin-3-yl)benzamide], in assay [1], the “number of mice with hair follicle and sebaceous gland grade +++” value came out at 0; the “number of mice with hair follicle and sebaceous gland grade ++” value stood at 0; the “number of mice with hair follicle and sebaceous gland grade +” value is listed as 2; the “number of mice with hair follicle and sebaceous gland grade ±” value came to 4. The “number of mice with hair follicle and sebaceous gland grade −” value in assay [1] worked out at 0. Moreover, in the assay on mouse hair loss model, the 15-day hair length is 0.682 * cm, the 30-day hair length is 0.872* cm, the 45-day hair length is listed as 0.886* cm and the 60-day hair length is reported as 0.971* cm.

Turning to `NC1CCCC(N(C(=O)c2ccc(-n3nnc4cccnc43)cc2)c2ncccc2Cl)C1` (stereo not drawn) [CLY-11], in assay [1], the “number of mice with hair follicle and sebaceous gland grade +++” value came out at 0; the “number of mice with hair follicle and sebaceous gland grade ++” value came to 2; the “number of mice with hair follicle and sebaceous gland grade +” value amounted to 1; the “number of mice with hair follicle and sebaceous gland grade ±” value was 3. The “number of mice with hair follicle and sebaceous gland grade −” value in assay [1] is 0. For the same compound, in the assay with mouse hair loss model, the 15-day hair length was 0.637* cm, the 30-day hair length was 0.831* cm, the 45-day hair length was 0.834* cm and the 60-day hair length is reported as 0.932* cm.

Take `O=C(c1ccc(-c2ccccc2-c2nnn[nH]2)cc1)N(c1ncccc1Cl)[C@@H]1CCCNC1` [CLY-19]: in assay [1], the “number of mice with hair follicle and sebaceous gland grade +++” value was 0; the “number of mice with hair follicle and sebaceous gland grade ++” value came to 1; the “number of mice with hair follicle and sebaceous gland grade +” value is reported as 2; the “number of mice with hair follicle and sebaceous gland grade ±” value is 3. The “number of mice with hair follicle and sebaceous gland grade −” value in assay [1] stood at 0. For the same compound, in the assay with mouse hair loss model, the 15-day hair length was 0.623* cm, the 30-day hair length is listed as 0.826* cm, the 45-day hair length is listed as 0.828* cm and the 60-day hair length is reported as 0.915* cm.

As for `O=C(c1ccc(-c2ccccc2Cl)cc1)N(c1ncccc1Cl)[C@@H]1CCCNC1` [CLY-36], in assay [1], the “number of mice with hair follicle and sebaceous gland grade +++” value is 0; the “number of mice with hair follicle and sebaceous gland grade ++” value is given as 2; the “number of mice with hair follicle and sebaceous gland grade +” value came to 1; the “number of mice with hair follicle and sebaceous gland grade ±” value was determined as 3. The “number of mice with hair follicle and sebaceous gland grade −” value in assay [1] turned out to be 0. In the assay with mouse hair loss model, the 15-day hair length was 0.628* cm, the 30-day hair length was 0.824* cm, the 45-day hair length is reported as 0.823* cm and the 60-day hair length is 0.919* cm.

In the case of `Nc1ccccc1-c1ccc(C(=O)N(c2ncccc2Cl)[C@@H]2CCCNC2)cc1` [CLY-39], in assay [1], the “number of mice with hair follicle and sebaceous gland grade +++” value turned out to be 0; the “number of mice with hair follicle and sebaceous gland grade ++” value is 1; the “number of mice with hair follicle and sebaceous gland grade +” value was determined as 2; the “number of mice with hair follicle and sebaceous gland grade ±” value was determined as 3. Moreover, the “number of mice with hair follicle and sebaceous gland grade −” value in assay [1] is given as 0. In the assay with mouse hair loss model, the 15-day hair length is reported as 0.665* cm, the 30-day hair length is listed as 0.845* cm, the 45-day hair length is reported as 0.867* cm and the 60-day hair length is on record as 0.956* cm.

With `Nc1cc(N2CCCCC2)nc(N)[n+]1[O-]` [Positive control group, minoxidil, reference compound], in assay [1], the “number of mice with hair follicle and sebaceous gland grade +++” value is listed as 0; the “number of mice with hair follicle and sebaceous gland grade ++” value amounted to 3; the “number of mice with hair follicle and sebaceous gland grade +” value is listed as 1; the “number of mice with hair follicle and sebaceous gland grade ±” value was 2. Besides, in assay [1], the “number of mice with hair follicle and sebaceous gland grade −” value amounted to 0. In the assay on mouse hair loss model, the 15-day hair length was 0.591* cm, the 30-day hair length is given as 0.814* cm, the 45-day hair length was found to be 0.825 cm and the 60-day hair length was 0.842* cm.
